The source of these data is US20140274881A1, “BIODEGRADABLE THERAPEUTIC NANOPARTICLES CONTAINING AN ANTIMICROBIAL AGENT” (CAROLINAS HEALTHCARE SYSTEM, priority 2008, published 2014).

In series [1] the test system is intracellular S. aureus. The experiment in a line: Viability of intracellular S. aureus in infected osteoblasts treated with nanoparticles. Format: cell-based, Staphylococcus aureus. The following applies: nafcillin alone, no nanoparticles. The protocol: The viability of intracellular S. aureus following treatment with nanoparticles was determined. S. aureus was allowed to infect cultured primary mouse osteoblasts as described herein, followed by removal and killing of all remaining extracellular bacteria in culture. […] None of the nanoparticle preparations had any effect on osteoblast viability. All loaded formulations of particles caused a significant decrease in the viability of intracellular S. aureus inside infected osteoblasts at both 24 and 48 hours.
FIG. 11 is a bar graph showing viability of intracellular S. aureus in osteoblasts treated with nanoparticles or nanoparticles loaded with nafcillin. Primary mouse osteoblasts were infected intracellularly with S. aureus and were subsequently treated with unloaded nanoparticles (G1 and G2) or nanoparticles loaded with nafcillin (G1.1, 1.2, 2.1 and 2.2) for 1 (0 hour), 24 and 48 hours. Osteoblasts were subsequently lysed following these time intervals with a solution containing 0.1% triton X-100, and serial dilutions of the lysates were plated on tryptic soy agar (TSA). Following an overnight incubation at 37° C., numbers of viable bacteria were enumerated, *, P<0.05 versus S. aureus-treated osteoblasts at the same time point. […]
Following resuspension in OBGM, bacterial cell density is determined via spectrophotometric analysis. […]

Series [2] is described as follows: In vitro drug release by dialysis method under sink conditions. Format: physicochemical. The following applies: nafcillin-PBS solution without polymer nanoparticles in dialysis bag, 37° C. The text has this:
A dialysis method was used in the measurement of in vitro drug release. Drug release studies were done under sink conditions; the volume of the buffer was kept large (outer sink) compared to the volume of drug-loaded nanoparticles suspension in the dialysis bag. The (theoretical) situation of infinite dilution is known as a perfect sink; however, even though perfect sink conditions are never attainable in practice, they are the only situation in which a true release profile can be measured. For a given matrix volume, an increase in liquid volume or volume ratio will promote drug release due to the lower drug concentrations in the medium. The system developed was continuously agitated, resulting in the faster diffusion of drug through the dialysis membrane to the outer sink. FIG. 9A is a plot of cumulative drug release (%) versus time in hours, for release of nafcillin from nafcillin-PBS solution loaded in a dialysis bag with a molecular weight cut-off of 6 kDa at 37° C. FIG. 9B is a plot of cumulative drug release (%) versus time in hours for release of nafcillin from nafcillin-PBS solution loaded in a dialysis bag with a molecular weight cut-off of 12-14 kDa at 37° C. The release of nafcillin from nafcillin-PBS solution without polymer nanoparticles was rapid, since 97% of the drug was released within the first nine (9) hours. […]

`CCOc1ccc2ccccc2c1C(=O)N[C@@H]1C(=O)N2[C@@H]1SC(C)(C)[C@@H]2C(=O)O` [nafcillin, Nafcillin]: the “viability of intracellular S. aureus, compared with untreated infected osteoblasts” value in series [1] is on record as “indistinguishable from untreated S. aureus-infected osteoblasts”. Further, in series [2], the “cumulative drug release within the first nine (9) hours” value is recorded as 97%.
